{"source": "paper PMC10456296", "about": "“Trichoderols B-G, Six New Lipids from the Marine Algicolous Fungus Trichoderma sp. Z43” (Marine Drugs, 2023)", "key": {"Glomerella cingulata": {"system": "Glomerella cingulata", "test": "Antifungal activity, microdilution method in 96-well plate", "type": "cell-based", "settings": "Colletotrichum gloeosporioides; microdilution in PDB, 28 °C, 48 h"}, "Fusarium graminearum": {"system": "Fusarium graminearum", "test": "microbe, parasite or virus in culture", "type": "cell-based", "settings": "48 h, read-out: MIC Fusarium graminearum"}, "Prorocentrum donghaiense": {"system": "Prorocentrum donghaiense", "test": "Antimicroalgal activity, inhibition of marine phytoplankton", "settings": "for IC50: Prorocentrum donghaiense, 24 h, read-out: IC50 Prorocentrum donghaiense"}, "Amphidinium carterae": {"system": "Amphidinium carterae", "test": "Antimicroalgal activity, inhibition of marine phytoplankton", "settings": "for IC50: Amphidinium carterae, 24 h, read-out: IC50 Amphidinium carterae"}, "[1]": {"system": "three phytopathogenic fungi (Fusarium graminearum, Gaeumannomyces graminis, and Glomerella cingulata)", "test": "organism not typed", "type": "cell-based", "settings": "for MIC: read-out: MIC against the three phytopathogenic fungi tested, summary over three fungi; for antifungal activity (in words): summary over three fungi"}, "[2]": {"system": "Heterocapsa circularisquama", "test": "Antimicroalgal activity, inhibition of marine phytoplankton", "settings": "for IC50: Heterocapsa circularisquama, 24 h, read-out: IC50 Heterocapsa circularisquama"}, "Heterosigma akashiwo": {"system": "Heterosigma akashiwo", "test": "Antimicroalgal activity, inhibition of marine phytoplankton", "settings": "for IC50: Heterosigma akashiwo, 24 h, read-out: IC50 Heterosigma akashiwo"}, "Gaeumannomyces graminis": {"system": "Gaeumannomyces graminis", "test": "Antifungal activity, microdilution method in 96-well plate", "type": "cell-based", "settings": "48 h, read-out: MIC Gaeumannomyces graminis"}, "Artemia salina": {"system": "Artemia salina", "test": "Brine shrimp lethal activity", "type": "in vivo", "settings": "24 h", "procedure": "The inhibition of the brine shrimp Artermia salina was assayed according to the procedures described in our previous report. In brief, brine shrimp eggs were left to hatch in sea water for 48 h at 25 °C under natural light. […] The lethality was observed after 24 h of cultivation."}}, "note": "Like-named read-outs stand apart in the source and are kept apart here."}
{"smiles": "C/C=C/CCC(O)C(O)C/C=C/C(O)C(C)O", "note": "(stereo not drawn) [Compound 4, (4E,11E)-trideca-4,11-diene-2,3,7,8-tetraol]", "values": [{"measurement": "MIC", "setting": "Glomerella cingulata", "result": 128, "unit": "µg/mL"}, {"measurement": "MIC", "setting": "Fusarium graminearum", "result": "> 256", "unit": "µg/mL"}, {"measurement": "IC50", "setting": "Prorocentrum donghaiense", "result": 42, "unit": "µg/mL"}, {"measurement": "IC50", "setting": "Amphidinium carterae", "result": "> 100", "unit": "µg/mL"}, {"measurement": "MIC", "setting": "[1]", "result": "≥ 64", "unit": "µg/mL"}, {"measurement": "antifungal activity (in words)", "setting": "[1]", "result": "weak antifungal activity"}, {"measurement": "IC50", "setting": "[2]", "result": "> 100", "unit": "µg/mL"}, {"measurement": "IC50", "setting": "Heterosigma akashiwo", "result": 53, "unit": "µg/mL"}, {"measurement": "MIC", "setting": "Gaeumannomyces graminis; microdilution in PDB, 28 °C", "result": 256, "unit": "µg/mL"}]}
{"smiles": "C/C=C/CCC(O)C(O)C/C=C/CC(C)O", "note": "(stereo not drawn) [Compound 5, (4E,11E)-trideca-4,11-dien-2,7,8-triol]", "values": [{"measurement": "MIC", "setting": "Glomerella cingulata", "result": "> 256", "unit": "µg/mL"}, {"measurement": "MIC", "setting": "Fusarium graminearum", "result": "> 256", "unit": "µg/mL"}, {"measurement": "IC50", "setting": "Prorocentrum donghaiense", "result": "> 100", "unit": "µg/mL"}, {"measurement": "IC50", "setting": "Amphidinium carterae", "result": 50, "unit": "µg/mL"}, {"measurement": "IC50", "setting": "[2]", "result": 68, "unit": "µg/mL"}, {"measurement": "IC50", "setting": "Heterosigma akashiwo", "result": "> 100", "unit": "µg/mL"}, {"measurement": "MIC", "setting": "Gaeumannomyces graminis; microdilution in PDB, 28 °C", "result": "> 256", "unit": "µg/mL"}]}
{"smiles": "CC=CCCC1(O)OC(C(O)C=CC)CC1O", "note": "(stereo not drawn) [Compound 1, Trichoderol B]", "values": [{"measurement": "MIC", "setting": "Glomerella cingulata", "result": 64, "unit": "µg/mL"}, {"measurement": "MIC", "setting": "Fusarium graminearum", "result": 256, "unit": "µg/mL"}, {"measurement": "IC50", "setting": "Prorocentrum donghaiense", "result": 22, "unit": "µg/mL"}, {"measurement": "IC50", "setting": "Amphidinium carterae", "result": 15, "unit": "µg/mL"}, {"measurement": "MIC", "setting": "[1]", "result": "64 to 256", "unit": "µg/mL"}, {"measurement": "antifungal activity (in words)", "setting": "[1]", "result": "weak antifungal activity"}, {"measurement": "IC50", "setting": "[2]", "result": 24, "unit": "µg/mL"}, {"measurement": "IC50", "setting": "Heterosigma akashiwo", "result": 28, "unit": "µg/mL"}, {"measurement": "MIC", "setting": "Gaeumannomyces graminis", "result": 256, "unit": "µg/mL"}]}
{"smiles": "C/C=C/CCC(O)C(O)C/C=C/CO", "note": "(stereo not drawn) [Compound 6, (2E,9E)-undeca-2,9-dien-1,5,6-triol]", "values": [{"measurement": "MIC", "setting": "Glomerella cingulata", "result": "> 256", "unit": "µg/mL"}, {"measurement": "MIC", "setting": "Fusarium graminearum", "result": "> 256", "unit": "µg/mL"}, {"measurement": "IC50", "setting": "Prorocentrum donghaiense", "result": "> 100", "unit": "µg/mL"}, {"measurement": "IC50", "setting": "Amphidinium carterae", "result": 44, "unit": "µg/mL"}, {"measurement": "IC50", "setting": "[2]", "result": "> 100", "unit": "µg/mL"}, {"measurement": "IC50", "setting": "Heterosigma akashiwo", "result": 82, "unit": "µg/mL"}, {"measurement": "MIC", "setting": "Gaeumannomyces graminis; microdilution in PDB, 28 °C", "result": "> 256", "unit": "µg/mL"}]}
{"smiles": "C=CCC(O)/C=C/C(O)C(O)CC/C=C/C", "note": "(stereo not drawn) [Compound 3, (5E,11E)-trideca-1,5,11-trien-4,7,8-triol]", "values": [{"measurement": "MIC", "setting": "Glomerella cingulata", "result": "> 256", "unit": "µg/mL"}, {"measurement": "MIC", "setting": "Fusarium graminearum", "result": "> 256", "unit": "µg/mL"}, {"measurement": "IC50", "setting": "Prorocentrum donghaiense", "result": "> 100", "unit": "µg/mL"}, {"measurement": "IC50", "setting": "Amphidinium carterae", "result": 66, "unit": "µg/mL"}, {"measurement": "IC50", "setting": "[2]", "result": 78, "unit": "µg/mL"}, {"measurement": "IC50", "setting": "Heterosigma akashiwo", "result": "> 100", "unit": "µg/mL"}, {"measurement": "MIC", "setting": "Gaeumannomyces graminis; microdilution in PDB, 28 °C", "result": "> 256", "unit": "µg/mL"}]}
{"smiles": "C/C=C/CCC(O)C(O)/C=C/C=C/C(O)CO", "note": "(stereo not drawn) [Compound 2, (3E,5E,11E)-trideca-3,5,11-trien-1,2,7,8-tetraol]", "values": [{"measurement": "MIC", "setting": "Glomerella cingulata", "result": "> 256", "unit": "µg/mL"}, {"measurement": "MIC", "setting": "Fusarium graminearum", "result": "> 256", "unit": "µg/mL"}, {"measurement": "IC50", "setting": "Prorocentrum donghaiense", "result": 37, "unit": "µg/mL"}, {"measurement": "IC50", "setting": "Amphidinium carterae", "result": 61, "unit": "µg/mL"}, {"measurement": "IC50", "setting": "[2]", "result": "> 100", "unit": "µg/mL"}, {"measurement": "IC50", "setting": "Heterosigma akashiwo", "result": 43, "unit": "µg/mL"}, {"measurement": "MIC", "setting": "Gaeumannomyces graminis; microdilution in PDB, 28 °C", "result": "> 256", "unit": "µg/mL"}]}
{"smiles": "C/C=C/CC[C@@H](O)[C@@H](O)C/C=C/[C@@H](O)[C@H](C)O", "note": "[Compound 7, triharzianin B]", "values": [{"measurement": "MIC", "setting": "Glomerella cingulata", "result": 128, "unit": "µg/mL"}, {"measurement": "MIC", "setting": "Fusarium graminearum", "result": "> 256", "unit": "µg/mL"}, {"measurement": "IC50", "setting": "Prorocentrum donghaiense", "result": 30, "unit": "µg/mL"}, {"measurement": "IC50", "setting": "Amphidinium carterae", "result": "> 100", "unit": "µg/mL"}, {"measurement": "MIC", "setting": "[1]", "result": "≥ 64", "unit": "µg/mL"}, {"measurement": "antifungal activity (in words)", "setting": "[1]", "result": "weak antifungal activity"}, {"measurement": "IC50", "setting": "[2]", "result": "> 100", "unit": "µg/mL"}, {"measurement": "IC50", "setting": "Heterosigma akashiwo", "result": 49, "unit": "µg/mL"}, {"measurement": "MIC", "setting": "Gaeumannomyces graminis; microdilution in PDB, 28 °C", "result": 256, "unit": "µg/mL"}]}
{"smiles": "[K+].[K+].[O]=[Cr](=[O])([O-])[O][Cr](=[O])(=[O])[O-]", "note": "[Compound K2Cr2O7, K2Cr2O7, reference compound]", "values": [{"measurement": "IC50 Prorocentrum donghaiense", "setting": "Prorocentrum donghaiense; live cells counted after 24 h", "result": 1.4, "unit": "µg/mL"}, {"measurement": "Lethal Rate (at 100 μg/mL) Artemia salina", "setting": "Artemia salina", "result": 100, "unit": "%"}, {"measurement": "IC50 Amphidinium carterae", "setting": "Amphidinium carterae; live cells counted after 24 h", "result": 1.2, "unit": "µg/mL"}, {"measurement": "IC50 Heterocapsa circularisquama", "setting": "[2]; live cells counted after 24 h", "result": 1.0, "unit": "µg/mL"}, {"measurement": "IC50 Heterosigma akashiwo", "setting": "Heterosigma akashiwo; live cells counted after 24 h", "result": 0.8, "unit": "µg/mL"}]}
{"smiles": "C[C@@H]1[C@H](O)[C@@H](C)/C=C/C=C/C=C/C=C/C=C/C=C/C=C/[C@H](O[C@@H]2O[C@H](C)[C@@H](O)[C@H](N)[C@@H]2O)C[C@@H]2O[C@](O)(C[C@@H](O)C[C@@H](O)[C@H](O)CC[C@@H](O)C[C@@H](O)CC(=O)O[C@H]1C)C[C@H](O)[C@H]2C(=O)O", "note": "[amphotericin B, reference compound]", "values": [{"measurement": "MIC", "setting": "Glomerella cingulata", "result": 1, "unit": "µg/mL"}, {"measurement": "MIC", "setting": "Fusarium graminearum", "result": 2, "unit": "µg/mL"}, {"measurement": "MIC", "setting": "Gaeumannomyces graminis; microdilution in PDB, 28 °C", "result": 2, "unit": "µg/mL"}]}
